Laboratory results published in US10905661B2, “Disulfiram and metal salt staggered oral dosing regimen and staggered-release oral unit dosage forms” (Cantex Pharmaceuticals, Inc., priority 2016, dated 2021).

What was measured:
[1] = Stability of disulfiram with zinc gluconate or copper gluconate after 4 weeks at 40° C.; format: physicochemical; settings: 4 weeks @ 40° C./75% RH; Actual Conc. 0.040 mg/mL
Experimental: Stability of disulfiram and zinc gluconate was tested after 4 weeks at 40° C. in 0.1 N HCl. (Table 24).

[2] = Compatibility of disulfiram and zinc gluconate in 0.1N HCl (color, precipitate); format: physicochemical
Experimental: Compatibility of disulfiram and zinc gluconate for simultaneous oral administration was assessed. […] and 40 mg of disulfiram were mixed in 50 mL volumetric flasks, and 0.1N HCl was added to the flasks. […] A control was run in parallel: 0.1N HCl solution containing 50 mg of zinc gluconate alone.

Compound	Conc. (disulfiram found) [1]	color change ([2]; 25° C./ambient humidity for 2 days)	precipitate / clarity of solution ([2]; T0 and T=2 days, 25° C.)
CCN(CC)C(=S)SSC(=S)N(CC)CC [DSF, bis(diethylthiocarbamoyl) disulfide]	40000 ng/mL	–	–
zinc gluconate [zinc gluconate alone]	–	no color change	remained clear
